# Data: patent US11766430B2, “Methods of using a phenoxypropylamine compound to treat pain” (Minerva Neurosciences, Inc., priority 2018, dated 2023)
# Values joined by “and” are separate entries in the source; they are usually repeats but may differ in a detail not shown here. Equal values may be shown once.
# Tested on: carrageenan-induced mechanical hyperalgesia in rats
# Assay: Carrageenan-induced mechanical hyperalgesia, paw pressure test, time course to 240 min (Example 2)
# Assay type: in vivo, male Sprague-Dawley rats
# Settings: for Effect on injured paw withdrawal threshold vs vehicle-treated group (in words): time course 30-240 min
# Procedure: In this model, inflammation is induced by intraplantar injection of carrageenan (2%) into the right hindpaw of the rat. Three hours later, reaction thresholds are measured using the paw pressure test. Pressure is gradually applied to both hind paws (inflamed and control) of the rat, and reaction thresholds are determined as the pressure (g) required to elicit paw withdrawal or vocalization. Morphine (3 mg/kg, s.c.) was used as a positive control.
# The experiments in this study used fifty (50) male Sprague-Dawley rats (SPF status, Janvier, France), each weighing 204-260 grams. The rats were housed in a temperature (20-24° C.) and relative humidity (45%-65%) controlled room and acclimated to an artificial day/night cycle of 12 hours light (6.30 a.m. to 6.30 p.m.)/12 hours darkness. Rats had free access to sterilized tap water and were fed ad libitum with pelleted complete diet (reference A04, S.A.F.E.). Rats were housed 4 per cage (cages Type E) and were acclimated for a period of at least 5 days before any testing. Each rat was identified by tail markings. Based on the SPF status of the animal facilities, there is no reason to expect that contaminants were present in the food, water or bedding, at levels capable of interfering with the results of the tests.
# Pain Test: Static mechanical hyperalgesia was assessed using the Paw Pressure test or Randall & Selitto test (Randall, L. O. and Selitto, J. J., A method for measurement of analgesic activity on inflamed tissue, Arch Int Pharmacodyn, 1957(111): 409-419). This test requires the application of an increasing pressure on the hind paws between a flat surface and a blunt pointer. This test is usually used with animals with one hind paw inflamed by an injection or injured by ligation, and one normal hind paw, to evaluate drugs for analgesic action. The apparatus exerts a steadily increasing force and reaction threshold is determined as the pressure (g) required to elicit paw withdrawal and/or vocalization. In the experiment, animals were gently handled by the experimenter and static mechanical hyperalgesia was assessed. Each reaction threshold measurement was done for both hind paws.
# Five (5) experimental groups of 10 rats each were used. Each group was first injected with of 100 μL of a 2% carrageenan suspension in the plantar aspect of the right hindpaw. Three hours after carrageenan injection, paw withdrawal threshold was measured using the paw pressure test (Baseline). The 5 groups were then administered the following: • Group 1: vehicle (0.5% HPMC), i.p., solution (negative control); • Group 2: MIN-117 (0.01 mg/kg, i.p.) in 0.5% HPMC, suspension; • Group 3: MIN-117 (0.1 mg/kg, i.p.) in 0.5% HPMC, suspension; • Group 4: MIN-117 (1 mg/kg, i.p.) in 0.5% HPMC, suspension; and • Group 5: morphine (3 mg/kg, s.c.) in 0.9% NaCl, solution (positive control).
# After administering vehicle, MIN-117, or morphine, the antihyperalgesic effect of the compounds was evaluated using the paw pressure test at 0 min. (T0), 30 min., 60 min., 120 min., and 240 min.
# Vehicle and MIN-117 were administered intraperitoneally at 10 mL/kg. Morphine was subcutaneously administered at 5 mL/kg. Dosing and testing were performed in a random order by a blinded experimenter except for the morphine-treated group. Doses were expressed in terms of free active substance. Rats were sacrificed at the end of the experiment by CO2 inhalation pending subsequent removal by a certified company.
# Results were assessed as: the paw withdrawal threshold (mean±s.e.m.) in grams of contact pressure for each group, calculated from individual paw withdrawal thresholds; the percentage of variation of the paw withdrawal threshold calculated from the mean value of the vehicle-treated group; and/or the percentage of activity. To determine a statistical effect of the test substance and the reference substance, data were analyzed by a non-parametrical test. The significance level was p<0.05.
# [1] = 1 mg/kg i.p., T0 (baseline before dosing)
# [2] = 1 mg/kg i.p., T0 (baseline before dosing), hydrochloride
# [3] = 1 mg/kg i.p., T0 + 30 min, hydrochloride
structure (smiles),measurement,setting,value
"Cc1nnc(-c2cc3c(OC[C@@H](O)CN4CCC(c5ccc(Cl)c(Cl)c5)CC4)cccc3o2)o1.Cl [MIN-117, (2S)-1-(4-(3,4-dichlorophenyl)piperidin-1-yl)-3-((2-(5-methyl-1,3,4-oxadiazol-2-yl)benzofuran-4-yl)oxy)propan-2-ol hydrochloride]","Nociceptive threshold, injured paw (mean ± s.e.m.)","0.1 mg/kg i.p., T0 (baseline before dosing), hydrochloride",178 ± 5.5 g and 178 g
same,"% activity, injured paw","0.1 mg/kg i.p., T0 + 30 min",3%
same,"% variation vs control paw, injured paw","0.1 mg/kg i.p., T0 + 30 min",−48%
same,"% variation vs pre-drug threshold, injured paw","0.1 mg/kg i.p., T0 + 30 min",3%
same,"% variation vs vehicle-treated group, injured paw","0.1 mg/kg i.p., T0 + 30 min",3%
same,"Nociceptive threshold, control paw (mean ± s.e.m.)","0.1 mg/kg i.p., T0 + 30 min",354 g
same,"Nociceptive threshold, injured paw (mean ± s.e.m.)","0.1 mg/kg i.p., T0 + 30 min, hydrochloride",184 ± 5.0 g and 184 g
same,"% activity, injured paw","0.1 mg/kg i.p., T0 + 60 min",−5%
same,"% variation vs control paw, injured paw","0.1 mg/kg i.p., T0 + 60 min",−48%
same,"% variation vs pre-drug threshold, injured paw","0.1 mg/kg i.p., T0 + 60 min",1%
same,"% variation vs vehicle-treated group, injured paw","0.1 mg/kg i.p., T0 + 60 min",−4%
same,"Nociceptive threshold, control paw (mean ± s.e.m.)","0.1 mg/kg i.p., T0 + 60 min",348 g
same,"Nociceptive threshold, injured paw (mean ± s.e.m.)","0.1 mg/kg i.p., T0 + 60 min, hydrochloride",180 ± 7.9 g and 180 g
same,"% activity, injured paw","0.1 mg/kg i.p., T0 + 120 min",−5%
same,"% variation vs control paw, injured paw","0.1 mg/kg i.p., T0 + 120 min",−50%
same,"% variation vs pre-drug threshold, injured paw","0.1 mg/kg i.p., T0 + 120 min",0%
same,"% variation vs vehicle-treated group, injured paw","0.1 mg/kg i.p., T0 + 120 min",−4%
same,"Nociceptive threshold, control paw (mean ± s.e.m.)","0.1 mg/kg i.p., T0 + 120 min",354 g
same,"Nociceptive threshold, injured paw (mean ± s.e.m.)","0.1 mg/kg i.p., T0 + 120 min, hydrochloride",178 ± 7.6 g and 178 g
same,"% activity, injured paw","0.1 mg/kg i.p., T0 + 240 min",−4%
same,"% variation vs control paw, injured paw","0.1 mg/kg i.p., T0 + 240 min",−49%
same,"% variation vs pre-drug threshold, injured paw","0.1 mg/kg i.p., T0 + 240 min",1%
same,"% variation vs vehicle-treated group, injured paw","0.1 mg/kg i.p., T0 + 240 min",−3%
same,"Nociceptive threshold, control paw (mean ± s.e.m.)","0.1 mg/kg i.p., T0 + 240 min",350 g
same,"Nociceptive threshold, injured paw (mean ± s.e.m.)","0.1 mg/kg i.p., T0 + 240 min, hydrochloride",180 ± 8.4 g and 180 g
same,Effect on injured paw withdrawal threshold vs vehicle-treated group (in words),0.1 mg/kg i.p.,did not induce any significant increase
same,"% activity, injured paw",[1],3%
same,"% variation vs control paw, injured paw",[1],−50%
same,"% variation vs vehicle-treated group, injured paw",[1],3%
same,"Nociceptive threshold, control paw (mean ± s.e.m.)",[2],374.0 ± 12.7 g and 374 g
same,"Nociceptive threshold, injured paw (mean ± s.e.m.)",[2],188 ± 9.0 g and 188 g
same,"% activity, injured paw","1 mg/kg i.p., T0 + 30 min",1%
same,"% variation vs control paw, injured paw","1 mg/kg i.p., T0 + 30 min",−49%
same,"% variation vs vehicle-treated group, injured paw","1 mg/kg i.p., T0 + 30 min",1%
same,"Nociceptive threshold, control paw (mean ± s.e.m.)","1 mg/kg i.p., T0 + 30 min",356 g
same,"% variation vs pre-drug threshold, injured paw",[3],−4% and 4%
same,"Nociceptive threshold, injured paw (mean ± s.e.m.)",[3],180 ± 7.3 g and 180 g
same,"% activity, injured paw","1 mg/kg i.p., T0 + 60 min",14%
same,"% variation vs control paw, injured paw","1 mg/kg i.p., T0 + 60 min",−45%
same,"% variation vs pre-drug threshold, injured paw","1 mg/kg i.p., T0 + 60 min",13%
same,"% variation vs vehicle-treated group, injured paw","1 mg/kg i.p., T0 + 60 min",13%
same,"Nociceptive threshold, control paw (mean ± s.e.m.)","1 mg/kg i.p., T0 + 60 min",380 g
same,"Nociceptive threshold, injured paw (mean ± s.e.m.)","1 mg/kg i.p., T0 + 60 min, hydrochloride",212 ± 12.4 g and 212 g
same,"% activity, injured paw","1 mg/kg i.p., T0 + 120 min",29%
same,"% variation vs control paw, injured paw","1 mg/kg i.p., T0 + 120 min",−41%
same,"% variation vs pre-drug threshold, injured paw","1 mg/kg i.p., T0 + 120 min",23%
same,"Nociceptive threshold, control paw (mean ± s.e.m.)","1 mg/kg i.p., T0 + 120 min",392 g
same,"Nociceptive threshold, injured paw (mean ± s.e.m.)","1 mg/kg i.p., T0 + 120 min, hydrochloride",232 ± 7.4 g and 232 g
same,"% activity, injured paw","1 mg/kg i.p., T0 + 240 min",1%
same,"% variation vs control paw, injured paw","1 mg/kg i.p., T0 + 240 min",−49%
same,"% variation vs pre-drug threshold, injured paw","1 mg/kg i.p., T0 + 240 min",0%
same,"% variation vs vehicle-treated group, injured paw","1 mg/kg i.p., T0 + 240 min",1%
same,"Nociceptive threshold, control paw (mean ± s.e.m.)","1 mg/kg i.p., T0 + 240 min",370 g
same,"Nociceptive threshold, injured paw (mean ± s.e.m.)","1 mg/kg i.p., T0 + 240 min, hydrochloride",188 ± 6.1 g and 188 g
same,Effect on injured paw withdrawal threshold vs vehicle-treated group (in words),1 mg/kg i.p.,slight increase in the nociceptive threshold becoming significant 120 min. after injection
